Literature values in article PMC6105163, “Abaloparatide Exerts Bone Anabolic Effects with Less Stimulation of Bone Resorption-Related Factors: A Comparison with Teriparatide” (Calcified Tissue International, 2018).

Assays:
cAMP and PKC = settings: ref [24]; cited from earlier work
Text: There is another possibility that the two peptides could show the different activity on protein kinase C (PKC). PKC is the downstream signal of PTH1R and is involved in the stimulation of bone resorption-related factors and bone catabolism. In fact, ostabolin, an amidated form of human PTH(1–31), differs from PTH(1–34) in PKC activation.

osteoblasts = settings: cited from earlier work
Text: The mechanism of action of TPTD on bone turnover is not fully understood; however, many studies have examined the molecular mechanisms in recent decades. According to a previous study, PTH(1–34) acts on osteoblasts and indirectly induces bone resorption by activating osteoclasts. PTH(1–34) increases the expression of receptor activator of nuclear factor kappa-B ligand (RANKL) and macrophage colony-stimulating factor (M-CSF) and decreases the expression of osteoprotegerin (OPG), a decoy receptor of RANKL [9]. These effects of PTH(1–34) further promote the maturation of osteoclasts with ... || We next investigated the effect of ABL on bone formation in SaOS-2. In the previous study, bone formation related to PTH1R signaling was enhanced by the intermittent treatment of TPTD in osteoblasts. This anabolic effect of intermittent TPTD treatment was mediated by IGF-1, which promoted the differentiation and mineralization of osteoblasts. We therefore evaluated the effects on IGF-1 and osteocalcin, a marker gene for differentiated osteoblasts, with a repeating 6-h exposure cycle of ABL and TPTD in SaOS-2 (Fig. 3a). As expected, ABL as well as TPTD increased the gene expressio ...

osteoporosis = settings: cited from earlier work
Text: In fact, teriparatide (TPTD), the N-terminal 34 amino acids fragment of PTH, is currently the only bone anabolic agent used for the treatment of osteoporosis, by daily or weekly subcutaneous administration.

In the case of human PTH(1–34) [Teriparatide], the “cAMP accumulation and PKC activation” value (cAMP and PKC) is listed as “stimulated both cAMP and PKC”, the “bone formation related to PTH1R signaling” value (osteoblasts; intermittent treatment, osteoblasts, ref [18]) is listed as “enhanced” and the OPG expression (osteoblasts; ref [9]) is listed as “decreases”. The “RANKL and M-CSF expression” value (osteoblasts; ref [9]) was “increases”, the IGF-1 expression (osteoblasts; ref [10]) was “enhancement” and the “BMD vs antiresorptive agents such as bisphosphonates” value (osteoporosis; daily or weekly subcutaneous) was “greater than antiresorptive agents”. The “effect on the hip” value (osteoporosis; daily or weekly subcutaneous) was “modest” and the blood calcium (osteoporosis; in vivo) was “mildly increased”.
